Conditions: for mass density / kinematic viscosity: 101.33 kPa; for mass density / kinematic viscosity / vapor or sublimation pressure: Liquid; for mass density: Pycnometric method; for surface tension liquid-gas: Capillary rise; for kinematic viscosity: Capillary tube (Ostwald / Ubbelohde) method; for vapor or sublimation pressure: Closed cell (Static) method

CC(C)O [propan-2-ol]
Conditions	kinematic viscosity [m2/s]	mass density [kg/m3]	surface tension liquid-gas [mN/m]	vapor or sublimation pressure [kPa]
263.1 K	–	810.9	–	–
283.1 K	–	795.3	–	–
293.2 K	3.12e-06	–	21.4	–
295.3 K	–	784.3	–	–
297.9 K	–	–	–	6.38
303.2 K	2.35e-06	–	–	–
303.3 K	–	–	20.6	–
303.6 K	–	777.5	–	–
303.7 K	–	–	–	8.93
313.2 K	–	–	19.8	–
321.2 K	–	–	–	21.91
323.2 K	1.39e-06	–	–	–
323.3 K	–	–	19	–
323.4 K	–	760.1	–	–
333.2 K	–	–	18.2	–
333.5 K	–	–	–	39.46
343.3 K	9e-07	741	17.4	61.57
352.9 K	–	–	–	92.28
362.5 K	–	–	–	134.96
